According to patent US8981100B2, “Use of novel coumarins as glutathione and thiol labels” (Life Technologies Corporation, priority 2007, dated 2015):
Where “and” joins values, the source holds several entries; their conditions need not be identical. Equal values may be shown once. Where a name gives a salt, the structure may show the parent alone.

Tests used:
U-2 OS cells [1] = experiment: cellular staining pattern in U-2 OS cells; type: cell-based, human
Protocol: (§1) Cells are plated into 96-well microplates and allowed to recover for several hours or overnight. For testing effects of drugs on intracellular thiol/glutathione content, normal growth medium is removed and replaced with normal growth medium containing the test drug. The solution is incubated for several minutes to days. Growth medium is then removed and mixture is rinsed twice with DPBS with glucose/calcium/magnesium (Invitrogen #14287). The compound of Examples 1, 2 or 4 is added in DPBS (Invitrogen #14287), with a concentration up to 100 uM (typically 20 uM). The solution is incubated in a 37 degree C. incubator for 5-30 minutes (typically 30 minutes). Cells can be imaged after dye labeling.
(§2) Aldehyde fixation: The dye solution is removed and formaldehyde 3.7% (Sigma F1635, or higher quality) in DPBS (Invitrogen #14190) is added and incubated at room temperature in a fume hood for 30 minutes. The formaldehyde fixative is then removed and cells are rinsed with DPBS (Invitrogen #14190) twice. Cells are kept in PBS.
(§3) The material is imaged with a fluorescence microscope with filter set for Hoechst 33342 (e.g. Arrayscan VTI (Thermo Fisher Scientific/Cellomics) to acquire the images automatically).

[2] = absorption and emission maxima of the dyes; type: physicochemical
U-2 OS cells [3] = experiment: SDS-PAGE of labeled U-2 OS cells (+/- BSO) to identify the intracellular target of the dye; type: cell-based, human; settings: (+/-) BSO 4 mM overnight, Example 2 40 uM for 60 min
Protocol: U-2 OS cells (ATCC HTB-96, human osteosarcoma cells) were plated in 10-cm dishes and incubated overnight in a 37 degree C. cell culture incubator. The cells were then treated with DL-Buthionine-(S,R)-sulfoximine (BSO, 4 mM in growth medium) for overnight (Control=no BSO treatment). The cells are rinsed cells 3 times with 10 mL of DPBS (Invitrogen #14287).
Labeling of cells: Example 2 (40 uM) in DPBS (Invitrogen #14287) was incubated at room temperature for 1 hour. The dye solution was removed and cells rinsed with DPBS (Invitrogen #14287) twice. The cells were scraped off the dish in the presence of DPBS and transferred to a 15 mL conical tube. The cells were pelleted by centrifugation—(5 min. at 5000 rpm, Centrific centrifuge, Fisher Scientific) and resuspended in DPBS, followed by pelleting cells by centrifugation for 5 min at 1000×g. The cells were resuspended in 170 μl DPBS and, to one half, 1 μl Protease Inhibitor (Sigma, P8340) was added, followed by 2 μl 1 M NEM for 30 min and 4 μl 1 M DTT for 30 min.
Processed samples were resolved with SDS-PAGE (NuPAGE 12% Bis-Tris, Invitrogen, NP0342BOX) run in MES buffer (Invitrogen, NP0002). LDS sample buffer (NP0007) and Molecular weight standard (SeeBluePlus2 Prestained Standard LC5925) were obtained from Invitrogen. […]

U-2 OS cells [4] = experiment: staining intensity of dyes in fixed U-2 OS cells, measured at the nuclear region; type: cell-based, human; settings: dye concentration 40 uM, 30 min staining, 3.7% formaldehyde fixation
Protocol: as §1
Aldehyde fixation: The dye solution is removed and formaldehyde 3.7% (Sigma F1635, or higher quality) in DPBS (Invitrogen #14190) is added and incubated at room temperature in a fume hood for 30 minutes. […]
as §3
(§4) To quantitate the images of cells stained with the Example compounds, one of the image analysis “BioApplcations” of Arrayscan VTI is used. […] Pixel intensity of the dye in cells are measured in regions (Nucleus, and/or “CytoRing”) defined by the cell identification method based on the nuclear counter stain. […]

U-2 OS cells [5] = experiment: effect of quinone toxicants on Example 2 staining in U-2 OS cells; type: cell-based, human; settings: toxicant 2 hours, high concentration 33.3 uM in steps of 1/3, Example 2 30 min, formaldehyde fixation, nuclear region
Protocol: as §1, §2
To quantitate the images of cells stained with the Example compounds, one of the image analysis “BioApplcations” of Arrayscan VTI is used. The basic principle of the software is described as follows: Individual cells in an image are identified using the intensity profile of nuclear stain (e.g. TO-PRO-3). The regions derived from the identified nuclear region in individual cells is obtained (“CytoRing”). Pixel intensity of the dye in cells are measured in regions (Nucleus, and/or “CytoRing”) defined by the cell identification method based on the nuclear counter stain. Cell-level data (intensity and other attributes of each cell in all acquired images) are then reported by the computer for further processing and analysis.

U-2 OS cells [6] = experiment: effect of BSO treatment on Example 2 staining in U-2 OS cells; type: cell-based, human; settings: BSO 4 mM overnight, Example 2 40 uM, varied staining time, 3.7% formaldehyde fixation, nuclear region
Protocol: as §1, §2, §4

[7] = test system: Clone 9 cells (Rat liver cells); experiment: effect of DEM treatment on Clone 9 cells, Example 2 multiplexed with YOYO-1; type: cell-based; settings: DEM 2 hours, at higher concentration of DEM
Protocol: Cells are plated into 96-well microplates and allowed to recover for several hours or overnight. For testing effects of drugs on intracellular thiol/glutathione content, normal growth medium is removed and replaced with normal growth medium containing the test drug. The solution is incubated for several minutes to days. Growth medium is then removed and mixture is rinsed twice with DPBS with glucose/calcium/magnesium (Invitrogen #14287). The compound of Examples 1, 2 or 4 is added in DPBS (Invitrogen #14287), with a concentration up to 100 uM (typically 20 uM). The solution is incubated in a 37 degree C. incubator for 5-30 minutes (typically 30 minutes). Cells can be imaged after dye labeling. Aldehyde fixation: The dye solution is removed and formaldehyde 3.7% (Sigma F1635, or higher quality) in DPBS (Invitrogen #14190) is added and incubated at room temperature in a fume hood for 30 minutes. The formaldehyde fixative is then removed and cells are rinsed with DPBS (Invitrogen #14190) twice. Cells are kept in PBS. To quantitate the images of cells stained with the Example compounds, one of the image analysis “BioApplcations” of Arrayscan VTI is used. […] Pixel intensity of the dye in cells are measured in regions (Nucleus, and/or “CytoRing”) defined by the cell identification method based on the nuclear counter stain. […]

O=c1cc(CBr)c2cc3c4c(c2o1)CCCN4CCC3 [Example 2, 2,3,6,7-tetrahydro-9-bromomethyl-1H,5H-quinolizino(9,1-gh)coumarin]
cellular staining pattern (U-2 OS cells [1]): prominent in nuclear area and diffuse stain in the cytoplasm, with low staining in the cell periphery
absorption maximum ([2]; in methanol): 408 nm and 413 nm
emission maximum ([2]; in methanol): 497 nm and 515 nm
major intracellular target (U-2 OS cells [3]): Glutathione (GSH)
staining intensity (brightness) relative to comparator dyes (U-2 OS cells [4]): brighter than Example 1

N[C@H](CCC(=O)N[C@H](CSCc1cc(=O)oc2c3c4c(cc12)CCCN4CCC3)C(=O)NCC(=O)O)C(=O)O [Example 3, glutathione adduct of 2,3,6,7-tetrahydro-9-bromomethyl-1H,5H-quinolizino(9,1-gh)coumarin]
absorption maximum ([2]; in water): 408 nm
emission maximum ([2]; in water): 512 nm

O=c1cc(CCl)c2cc3c4c(c2o1)CCCN4CCC3 [Example 1, 2,3,6,7-tetrahydro-9-chloromethyl-1H,5H-quinolizino(9,1-gh)coumarin]
cellular staining pattern (U-2 OS cells [1]): prominent in nuclear area and diffuse stain in the cytoplasm, with low staining in the cell periphery
absorption maximum ([2]; in methanol): 405 nm
emission maximum ([2]; in methanol): 493 nm
staining intensity (brightness) relative to comparator dyes (U-2 OS cells [4]): brighter than CMAC and mBCl

CC1=CC(=O)c2ccccc2C1=O [MNQ, 2-methyl-1,4-naphthoquinone]
effect on Example 2 staining intensity (U-2 OS cells [5]): decrease of staining at high toxicant concentrations

CCCCS(=N)(=O)CCC(N)C(=O)O (racemic) [BSO, DL-Buthionine-(S,R)-sulfoximine]
effect on Example 2 staining intensity (U-2 OS cells [6]): reduction of Example 2 staining

COC(=O)/C=C\C(=O)OC [DEM, Dimethyl maleate]
effect on Example 2 intensity ([7]; Example 2 40 uM 30 min): decrease of Example 2 signal (left shift)
effect on YOYO-1 intensity ([7]; YOYO-1 1 uM 30 min): increase of YOYO-1 signal (up shift)

O=C1C=CC(=O)C=C1 [BQ, 1,4-benzoquione]
effect on Example 2 staining intensity (U-2 OS cells [5]): decrease of staining at high toxicant concentrations

O=C1C=CC(=O)c2ccccc21 [NQ, 1,4-naphthoquinone]
effect on Example 2 staining intensity (U-2 OS cells [5]): decrease of staining at high toxicant concentrations
